Consider two compounds from patent publication US20240051952A1, “HMOX1 INDUCERS” (Mitobridge Inc., priority 2019, published 2024).

Each structure is given as a SMILES string.

Data set [1] in a line: PD study, liver compound concentration in mice. The following applies: mouse liver, 50 mpk oral. The class given is in vivo.
Another data set relates to Heme Oxygenase 1 (HO1). As to the kind of experiment: PD study, HMOX1 protein levels in mouse plasma and liver (ELISA). The data set is classed as in vivo. The following applies: HMOX1 protein fold induction vs time-matched vehicle, 50 mpk oral. On the procedure: 9-10 week old male C57BL/6 mice were dosed orally with 50 mg/kg of vehicle or compound formulated in 5% w/v tween 80 and 0.5% methyl cellulose. At indicated time points (3 and 6 hours or or 4 and 8 hours post-dosing as shown in the results below), whole blood was collected, animal was sacrificed and liver was collected. Blood samples were transferred to vials containing 4 μL of 10% w/v EDTA, centrifuged at 6000 rpm for 8 in below 10° C. to obtain plasma. Samples were frozen and later processed for HMOX1 protein levels as indicated below:
HMOX 1 Protein Levels: Mouse Liver
Preparation of Homogenization/Lysis Buffer
The homogenization buffer was prepared according Table A.
Immediately prior to use, add DTT (ThermoScientific #R0861) to a final concentration of 5 mM and 100×Halt Protease & Phosphatase Inhibitor Cocktail (ThermoScientific #78440) to a final concentration of 1×.
Preparation of Mouse Liver Samples
Liver samples were crushed by mortar and pestle under freezing conditions. Pulverized tissue was transferred into pre-chilled bead ruptor OMNI tubes (OMNI International, Cat #19-628). 1 mL of homogenization buffer (+DTT and HALT) was added to pulverized tissue and tubes were placed on ice. Samples were loaded and run through bead ruptor at speed 5.64 m/s, for two 20 sec cycles with 10 sec dwell between cycles and samples were immediately returned to ice. All material was transferred to a new chilled 2 mL Eppendorf tube. Samples were centrifuged for 5 minutes at 2,000 rpm at 4° C. Supernatant was transferred to a fresh chilled 1.7 mL Eppendorf tube. Samples were centrifuged for 5 minutes at 2,000 rpm at 4° C. The supernatant, consisting of cytosol and microsomes, was transferred to a fresh chilled 1.7 mL Eppendorf tube. Samples were stored at −80° C. Microsome samples were quantitated using Pierce 660 Assay (ThermoFisher Cat #22660) with pre-diluted BSA standards (ThermoFisher Cat #23208) ranging from 125-2000 μg/mL. Each sample was diluted to 10ng/ul for an ELISA input of 0.5ug in 50ul.
Preparation of Assay Reagents
All assay reagents were provided in the Heme Oxygenase 1 (HO1) Mouse SimpleStep ELISA Kit (Abcam #ab204524). Prior to use, all reagents were equilibrated to room temperature. 1×Wash Buffer PT was prepared by diluting 10×Wash Buffer PT 1:10 with deionized water. Antibody cocktail was prepared by diluting the 10×Capture Antibody and 10×Detector Antibody to 1×in Antibody Diluent 5BI. Mouse heme oxygenase 1 protein standard was reconstituted using 500ul homogenization buffer (Table A), mixed and held at room temperature for 10 minutes prior to dilution. An eight point standard curve was generated by diluting the Stock Standard 1:2 for standard curve ranging from 10,000-156.3 pg/mL.
Heme Oxygenase 1 (HO1) Mouse SimpleStep ELISA
50ul of all samples and standards were added to appropriate wells in duplicate. 50ul of 1×Antibody Cocktail was added to each well. The plate was sealed with provided seal and incubated at room temperature on a plate shaker at 400 rpm. After one hour incubation, the Antibody Cocktail was aspirated and the wells were washed three times with 350ul 1×Wash Buffer PT, aspirating completely between each step. After the last wash was aspirated dry, 100ul TMB Substrate was added to each well and the plate was incubated in the dark at room temperature for 10 minutes on a plate shaker at 400 rpm. After the 10 minute incubation, 100ul of Stop Solution was added to each well. Plate was shaken at 400 rpm for 1 minute to mix. Softmax Pro 7.0.3 was used to read OD at 450 nm as well as for analysis.
Heme Oxygenase 1 Protein Levels in Mouse Plasma
All assay reagents were provided in the Heme Oxygenase 1 (HO1) Mouse SimpleStep ELISA Kit (Abcam #ab204524). 1×Wash Buffer PT was prepared by diluting 10×Wash Buffer PT 1:10 with deionized water. Antibody cocktail was prepared by diluting the 10×Capture Antibody and 10×Detector Antibody to 1×in Antibody Diluent 5BI. […]
(In an ELISA, binding on a coated surface is turned into a signal by an enzyme label.)

Data set [2] has as its system Human Heme Oxygenase-1 (HMOX-1). As to the kind of experiment: ELISA assay to measure human heme oxygenase-1 (HMOX-1) in HepG2 lysate. The data set is classed as cell-based. Particulars: fold change of human HMOX1 protein levels relative to DMSO control, HepG2. The essentials: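 HepG2 cells lysed in PBS/0.5% Triton X-100/1 mM EDTA with protease inhibitors; lysate diluted 1:20. Sandwich ELISA: anti-HO-1 capture (8 μg/ml), biotinylated detection antibody (200 ng/ml), streptavidin-HRP, chemiluminescent read. Quantified against 12-point HO-1 standard curve from 20 ng/ml; incubations at 20 °C.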

The nature of data set [3]: PK study, plasma and brain levels in C57BL/6 mice. The data set is classed as in vivo, mouse. Particulars: male C57BL/6 mice, 50 mg/kg oral. Here is the method:
9-10 week old male C57BL/6 mice were dosed orally with 50 mg/kg of the test compound formulated in 5% w/v tween 80 and 0.5% methyl cellulose. At 0.5 and 4 h post dosing, whole blood was collected, animals were sacrificed and brain tissues were collected. The blood samples were immediately placed on ice, and centrifuged within 60 min at 4° C. for 3 min at 14000 rpm to obtain plasma. Plasma was transferred by pipette to pre-labeled Eppendorf tubes, stored at −80° C. until analyzed.
Brain tissue samples were collected and rinsed with fresh ice cold 0.9% NaCl solution, dried quickly and thereafter frozen on dry ice/liquid nitrogen and stored at −70±10° C. until analyzed. Homogenization was done using phosphate buffer saline and used for analysis. Bioanalysis was performed using LC-MS/MS (API 4000).

On to `Cn1c(Nc2nc3ccc(OC(F)(F)F)cc3o2)nc2cc(C(=O)O)ccc21` [Example 44, 1-methyl-2-((6-(trifluoromethoxy)benzo[d]oxazol-2-yl)amino)-1H-benzo[d]imidazole-5-carboxylic acid], for which, in data set [1] (3 h), the “Liver Conc uM (3 h)” value came out at 217 µM. The “Liver Conc uM (6 h)” value in data set [1] (6 h) was found to be 162 µM. Further, the “Liver Protein (3 h)” value in the data set on Heme Oxygenase 1 (HO1) (mouse liver, 3 h) was 1.6x. The “Liver Protein (6 h)” value with Heme Oxygenase 1 (HO1) (mouse liver, 6 h) is 2.1x. In the data set on Heme Oxygenase 1 (HO1) (mouse plasma, 3 h), the “Plasma Protein (3 h)” value is listed as 1.0 x. Further, in the data set on Heme Oxygenase 1 (HO1) (mouse plasma, 6 h), the “Plasma Protein (6 h)” value was determined as 1.1x. Further, in data set [2], the “Maximum Fold induction” value is 9-14.
Regarding `COCCNC(=O)c1ccc2c(c1)nc(Nc1nc3ccc(OCCOC)cc3o1)n2C` [Example 56, 2-((6-(2-methoxyethoxy)benzo[d]oxazol-2-yl)amino)-N-(2-methoxyethyl)-1-methyl-1H-benzo[d]imidazole-5-carboxamide], in data set [2], the “Maximum Fold induction” value is recorded as 21-38. Moreover, the brain penetration result in data set [3] is given as “good brain penetration”.
